Literature values as cited in patent US20170007618A1, “SEROTONIN 2C RECEPTOR ANTAGONISTS TO PREVENT AND TREAT STRESS-RELATED TRAUMA DISORDERS” (Massachusetts Institute of Technology, priority 2015, published 2017).
Where a name gives a salt, the structure may show the parent alone.

How the values were obtained:
5-HT2B receptors = 5-HT2B receptors (Homo sapiens, UniProt P41595); conditions: 5-HT2C versus 5-HT2B
5-HT2A receptors = 5-HT2A receptors (Homo sapiens, UniProt P28223); conditions: 5-HT2C versus 5-HT2A
Chain of 5-HT2A receptors (P28223 whole entry): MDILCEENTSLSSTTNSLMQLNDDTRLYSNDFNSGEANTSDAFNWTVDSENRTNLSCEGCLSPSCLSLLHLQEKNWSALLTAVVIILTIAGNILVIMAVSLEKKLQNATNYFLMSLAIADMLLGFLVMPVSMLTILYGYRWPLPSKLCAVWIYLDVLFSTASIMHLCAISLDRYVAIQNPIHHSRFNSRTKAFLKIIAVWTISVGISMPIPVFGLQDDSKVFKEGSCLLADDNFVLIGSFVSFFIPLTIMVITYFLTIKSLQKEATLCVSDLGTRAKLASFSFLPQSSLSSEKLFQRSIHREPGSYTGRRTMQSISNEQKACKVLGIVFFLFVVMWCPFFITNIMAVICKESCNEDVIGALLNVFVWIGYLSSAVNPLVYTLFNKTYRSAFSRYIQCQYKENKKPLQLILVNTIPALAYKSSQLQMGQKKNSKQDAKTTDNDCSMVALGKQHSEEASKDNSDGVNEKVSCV

[1] = target: T1, cloned human 5-HT2C receptor (Homo sapiens, UniProt P28335)
T1 sequence (P28335 33-458): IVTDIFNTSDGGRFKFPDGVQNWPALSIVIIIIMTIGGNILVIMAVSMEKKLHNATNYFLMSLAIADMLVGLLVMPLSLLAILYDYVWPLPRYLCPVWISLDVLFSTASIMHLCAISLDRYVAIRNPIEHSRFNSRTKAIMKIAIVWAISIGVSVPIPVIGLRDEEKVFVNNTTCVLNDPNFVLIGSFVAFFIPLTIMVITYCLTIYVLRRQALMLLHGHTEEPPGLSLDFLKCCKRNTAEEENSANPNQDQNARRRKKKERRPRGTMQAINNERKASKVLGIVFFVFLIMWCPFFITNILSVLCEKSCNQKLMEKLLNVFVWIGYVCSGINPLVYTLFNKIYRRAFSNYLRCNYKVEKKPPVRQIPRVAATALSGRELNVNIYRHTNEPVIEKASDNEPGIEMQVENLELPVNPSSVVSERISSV

Chain of 5-HT2B receptors (P41595 whole entry): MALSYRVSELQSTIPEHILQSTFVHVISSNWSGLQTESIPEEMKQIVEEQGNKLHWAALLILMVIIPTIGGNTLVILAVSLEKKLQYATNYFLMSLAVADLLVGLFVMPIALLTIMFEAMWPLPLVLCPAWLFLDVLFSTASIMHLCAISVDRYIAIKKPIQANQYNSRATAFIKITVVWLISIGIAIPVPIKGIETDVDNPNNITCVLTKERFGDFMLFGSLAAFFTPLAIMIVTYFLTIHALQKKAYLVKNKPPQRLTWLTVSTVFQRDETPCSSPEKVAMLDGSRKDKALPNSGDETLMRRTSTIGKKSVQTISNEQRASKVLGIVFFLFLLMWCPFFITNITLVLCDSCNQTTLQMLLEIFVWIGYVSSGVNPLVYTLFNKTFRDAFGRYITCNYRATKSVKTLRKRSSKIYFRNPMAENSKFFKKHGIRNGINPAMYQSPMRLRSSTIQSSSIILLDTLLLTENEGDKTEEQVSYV

Structure (SMILES) | selectivity over 5-HT2B receptors (5-HT2B receptors) [fold] | selectivity over 5-HT2A receptors (5-HT2A receptors) [fold] | pKi [1]
COc1cc(OC)c(C(=O)CCCCN2CCC3(CC2)NC(=O)NC3=O)cc1NS(=O)(=O)c1ccc(C(F)(F)F)cc1 [RS 102221, 8-[5-(2,4-Dimethoxy-5-(4-trifluoromethylphenylsulphonamido)phenyl-5-oxopentyl]-1,3,8-triazaspiro[4.5]decane-2,4-dione hydrochloride] | 100 | 100 | –
Cl.Cn1ccc2cc(NC(=O)Nc3cccnc3)ccc21 [SB 200646A, N-(1-methyl-5-indolyl)-N′-(3-pyridyl) urea hydrochloride] | – | – | 6.9
Cc1cc2c(cc1Cl)N(C(=O)Nc1ccc(Oc3cccnc3C)nc1)CC2 [SB 242084, 6-chloro-5-methyl-N-{6-[(2-methylpyridin-3-yl)oxy]pyridin-3-yl}indoline-1-carboxamide] | 100 | 158 | –
